This is an account of results in patent US20110190503A1, “Thiazolopyridin-2-yloxy-phenyl and thiazolopyrazin-2-yloxy-phenyl amines as modulators of leukotriene A4 hydrolase” (Janssen Pharmaceutical NV, priority 2008, published 2011).

A word on the IC50: it is the concentration needed to halve the response being measured. Usually inhibition in vivo stands for the drop in the measured response relative to a control, in per cent. As a reminder, the inhibition is the change of the read-out against control, counted positive when it falls.

Experiment [1] has as its system LTB4 production by calcium ionophore-stimulated murine blood. Briefly: LTB4 production by calcium ionophore-stimulated murine blood for LTA4H inhibitor activity. It counts as cell-based, CD-1 mice. As to conditions: Mus musculus; murine blood diluted 1 in 15, calcium ionophore A23187, LTB4 by immunoassay; read-out: IC50. In outline:
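Heparinized CD-1 mouse blood pre-incubated with compound 15 min at 37° C, then stimulated with calcium ionophore A23187 (7 μg/mL final) for 30 min. LTB4 in supernatant measured by enzyme immunoassay; values are single or averaged determinations, with SD for n≥3.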

For experiment [2], the system named is LTB4 production by calcium ionophore-stimulated human blood. Briefly: LTB4 production by calcium ionophore-stimulated human blood for LTA4H inhibitor activity. Format: cell-based. The note with it: human blood diluted 1:1, calcium ionophore A23187, LTB4 by immunoassay; n in parentheses; read-out: IC50. The procedure: Assay 3: LTB4 Production by Calcium Ionophore-Stimulated Human Blood for LTA4H Inhibitor Activity
Human blood was collected from healthy donors in heparin-containing syringes. The blood was diluted 1:1 with RPMI-1640 medium, and 200-μL aliquots of the diluted blood were added to wells of a 96-well microtiter plate. LTA4H inhibitor test compounds were prepared at different concentrations in RPMI-1640 medium containing 1% DMSO, and 20 μL of each test solution was added to a well containing diluted whole blood (final DMSO concentration of 0.1%). After the microtiter plate contents were incubated for 15 min at 37° C. in a humidified incubator, calcium ionophore A23187 (Sigma Chemical Co., St. Louis, Mo.) was added to each sample well (final concentration=7 μg/mL). The incubation was continued under the same conditions for an additional 30 min to allow LTB4 formation. The reaction was terminated by centrifugation (833×g, 10 min at 4° C.), and supernatants were analyzed for LTB4 by a commercially available enzyme-linked immunoassay (Cayman Chemical Co.) according to the manufacturer's instructions. Positive controls, under essentially identical conditions but without addition of an inhibitor compound, and negative unstimulated controls, containing all assay components except calcium ionophore, were routinely run in each experiment. IC50 values for compounds tested in this assay were determined by nonlinear regression of the activity data at different compound concentrations using Graphpad Prism 4.0, one site binding competition, and are presented in Table 3. The number of determinations made is indicated in parentheses following each value.

Experiment [3] addresses T1, recombinant human LTA4 hydrolase (rhLTA4H) (Homo sapiens, UniProt P09960).
T1 construct: made in house; host or cells: Spodoptera frugiperda (Sf-9) cells, recombinant baculovirus (pFastBac1)
T1 sequence (P09960 1-611): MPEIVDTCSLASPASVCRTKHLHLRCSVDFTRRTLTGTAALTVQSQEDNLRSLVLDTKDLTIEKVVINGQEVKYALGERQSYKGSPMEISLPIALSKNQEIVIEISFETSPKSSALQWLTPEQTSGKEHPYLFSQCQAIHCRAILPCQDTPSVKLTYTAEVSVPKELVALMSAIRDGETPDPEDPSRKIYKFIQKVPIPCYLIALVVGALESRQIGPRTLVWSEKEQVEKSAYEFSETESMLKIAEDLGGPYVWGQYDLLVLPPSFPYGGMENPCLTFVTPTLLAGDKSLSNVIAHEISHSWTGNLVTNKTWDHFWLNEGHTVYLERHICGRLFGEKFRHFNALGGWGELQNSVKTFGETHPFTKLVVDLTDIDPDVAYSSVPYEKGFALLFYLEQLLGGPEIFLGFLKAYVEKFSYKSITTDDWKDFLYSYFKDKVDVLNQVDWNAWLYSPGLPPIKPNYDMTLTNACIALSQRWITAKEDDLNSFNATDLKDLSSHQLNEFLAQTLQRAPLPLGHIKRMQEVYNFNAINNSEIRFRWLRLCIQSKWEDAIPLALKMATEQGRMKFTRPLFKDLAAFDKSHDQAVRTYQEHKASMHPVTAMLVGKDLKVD
As to the kind of experiment: Recombinant human LTA4 hydrolase assay for LTA4 hydrolase inhibitor activity. It counts as biochemical. The note with it: rhLTA4H, LTA4 substrate, LTB4 by immunoassay; single determination or average; read-out: IC50. In outline:
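Recombinant human LTA4H from baculovirus-infected Sf-9 cells (10 ng) pre-incubated 10 min at rt with compound (10% DMSO in dilutions), then reacted with free-acid LTA4 for 30 min at rt. LTB4 measured by ELISA; IC50 by nonlinear regression. Values are single determinations or averages.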

The test system of experiment [4] is airway hyperresponsiveness. As to conditions: primate model; cited from earlier work.
The subject of experiment [5] is ionophore-induced LTB4 production. The note with it: oral administration; cited from earlier work.
The test system of the next experiment is colitis symptoms. The note with it: eight weeks of treatment, cotton top tamarins; cited from earlier work.
Experiment [6] has as its system ionophore-induced LTB4 production. As to conditions: oral administration; cited from earlier work. The source holds these as a separate data set.
For the next experiment, the system named is neutrophil influx. As to the kind of experiment: Murine arachidonic acid-induced inflammation model: neutrophil influx in ear, myeloperoxidase activity (% Inh. MPO). Format: in vivo. As to conditions: Mus musculus, female Balb/c mice, 30 mg/kg oral gavage, ear biopsy 3 h after topical arachidonic acid, number of determinations in parentheses. The procedure: (§1) Assay 4: Murine Arachidonic Acid-Induced Inflammation Model
(§2) LTA4H inhibitor compounds of the present invention were dissolved in 20% cyclodextran/H2O at a concentration of 3 mg/mL. The solutions were administered by oral gavage to female Balb/c mice weighing approximately 20 grams each (0.2 mL per mouse, 30 mg of LTA4H inhibitor compound per kg). Sixty minutes after being administered an LTA4 inhibitor, each mouse received topical application of 20 μL of arachidonic acid (100 mg/mL in acetone) to the left ear and 20 μL of acetone only to the right ear. After 3 h, the mice were sacrificed, blood was withdrawn in heparinized syringes, and 8 mm ear biopsies were taken. Ear biopsies were weighed to determine edema and then frozen at −80° C. until needed for determination of neutrophil influx.
Neutrophil influx was quantified by measuring the activity of myeloperoxidase (MPO), a neutrophil-specific enzyme. The ear biopsies were homogenized in 0.5 mL extraction buffer (0.3 M sucrose, 0.22% (w/v) hexadecyl trimethyl ammonium bromide (CTAB), and 2.5 mM citrate prepared from 0.5 M citrate stock solution (pH 5.0)), in a Fast-Prep-24 (MP™) (40 seconds at 6 mps). Debris was removed by centrifugation at 14000×g for 10 min. Aliquots of 10 μL of the resulting supernatant were added to wells of a microtiter plate, along with 90-μL aliquots of dilution buffer (10 mM citrate, 0.22% CTAB), followed by addition of 20 μL TMB liquid substrate system (Sigma Chemical Co.) to each sample well. The microtiter plate contents were held at room temperature until the sample with the highest concentration of MPO reached an absorbance value of 0.4 at 650 nm. The reaction was stopped by addition of 50 μL 1 M H2SO4 to each sample well, and the myeloperoxidase activity in each sample was determined from the absorbance at 405 nm. The background value from the right ear, treated only with acetone, was subtracted from that for the left ear, treated with arachidonic acid in acetone, for each animal. The percent inhibition of neutrophil influx (% Inh. MPO) by compounds of the invention was determined by comparison to animals treated identically, except that the solution administered by oral gavage was devoid of inhibitor compound.
(§3) The number of determinations is indicated in parentheses following each value

The test system of experiment [7] is ex vivo stimulated LTB4 production. As to the kind of experiment: Murine arachidonic acid-induced inflammation model: ex vivo stimulated LTB4 production (% Inh. LTB4). The note with it: Mus musculus; female Balb/c mice, 30 mg/kg oral gavage; blood taken 3 h after arachidonic acid, ex vivo A23187 stimulation; number of determinations in parentheses. The procedure:
as §1, §2
One hundred-microliter aliquots of heparinized blood were added to wells of a microtiter plate, along with equal volumes of RPMI-1640 medium, and calcium ionophore A23187 was added to each sample well (final concentration=[…]). The microtiter plate contents were incubated for 30 min at 37° C. in a humidified incubator. The reaction was terminated by centrifugation (833×g, 10 min at 4° C.). Supernatants were analyzed for LTB4 by a commercially available enzyme-linked immunoassay (Cayman Chemical Co.) in accordance with the manufacturer's instructions. The percent inhibition of ex vivo stimulated LTB4 production (% Inh. LTB4) was determined by comparison to animals treated identically except that the solution administered by oral gavage was devoid of inhibitor compound.
as §3

The test system of experiment [8] is bronchial hyperresponsiveness. The note with it: human asthma; cited from earlier work.
The subject of another experiment is atopic dermatitis. As to conditions: small, open-label clinical trials; cited from earlier work.
For the next experiment, the system named is pruritus. The note with it: Sjogren-Larsson syndrome patients; cited from earlier work.
The conditions of experiment [9]: severe asthmatics; cited from earlier work.

Each structure is given as a SMILES string. Where a name gives a salt, the structure may show the parent alone.

Take `NC(=O)N1C[C@@H]2CC[C@H]1CN2Cc1ccc(Oc2nc3ncccc3s2)cc1` [Example 293, (1S,4S)-5-[4-([1,3]Thiazolo[4,5-b]pyridin-2-yloxy)benzyl]-2,5-diazabicyclo[2.2.2]octane-2-carboxamide formate]: the IC50 stood at 29 nM in experiment [1], 10 nM in experiment [2] and 3 nM in [3].

For the compound `O=C(O)C1(c2ccc3c(c2)OC[C@H](Cc2ccc(-c4ccccc4)cc2)[C@H]3O)CCCC1` [CP-105,696], in experiment [4], the “airway hyperresponsiveness induced by multiple antigen challenges” value was “reduced airway hyperresponsiveness”.

Consider `CN(CCCOc1ccc(Cc2ccccc2)cc1)CCC(=O)O.Cl` [SC57461], for which, in experiment [5], the “inhibition of ionophore-induced LTB4 production in rat peritoneum in vivo” value is given as “caused inhibition”. Further, the colitis symptoms result in the experiment on colitis symptoms is given as “significantly improved”. Moreover, the “inhibition of ionophore-induced LTB4 production in mouse blood ex vivo” value in experiment [6] is given as “caused inhibition”.

Turning to `CC(=O)N1C[C@H]2C[C@@H]1CN2CCc1ccc(Oc2nc3ncccc3s2)cc1` [Example 79, 2-(4-{2-[(1R,4R)-5-Acetyl-2,5-diazabicyclo[2.2.1]hept-2-yl]ethyl}phenoxy)[1,3]thiazolo[4,5-b]pyridine], in the experiment with neutrophil influx, the inhibition in vivo at 30 mg/kg is 82.2%. The IC50 in experiment [1] is 20 nM; in experiment [3], 6 nM. Moreover, the inhibition at 30 mg/kg in experiment [7] turned out to be 86.7%.

Consider `O=C1C[C@@H](O)CN1C1CCN(CCOc2ccc(Oc3nc4ncccc4s3)cc2)CC1` [Example 270, (4R)-4-Hydroxy-1-(1-{2-[4-([1,3]thiazolo[4,5-b]pyridin-2-yloxy)phenoxy]ethyl}piperidin-4-yl)pyrrolidin-2-one], for which, in the experiment with neutrophil influx, the inhibition in vivo at 30 mg/kg was 60.6%. For the same compound, the results for the IC50 in experiment [1] and in experiment [3] were 120 nM and 10 nM, respectively. For the same compound, in experiment [7], the inhibition at 30 mg/kg amounted to 75.9%.

On to `c1cnc2nc(Oc3ccc(OCCN4CCCCC4)cc3)sc2c1` [Example 10, 2-[4-(2-Piperidin-1-ylethoxy)phenoxy][1,3]thiazolo[4,5-b]pyridine], for which the inhibition in vivo at 30 mg/kg in the experiment with neutrophil influx was 62.2%. The IC50 in [1] stood at 19 nM; in experiment [3], 5 nM. The inhibition at 30 mg/kg in experiment [7] worked out at 68%.

On to `OC[C@@H]1CCCN1Cc1ccc(Oc2nc3ncccc3s2)cc1` [Example 108, {(2S)-1-[4-([1,3]Thiazolo[4,5-b]pyridin-2-yloxy)benzyl]pyrrolidin-2-yl}methanol], for which the inhibition in vivo at 30 mg/kg in the experiment with neutrophil influx was determined as 71.4%. The IC50 in experiment [1] came to 8 nM; in [3] it was 2.4 nM. In experiment [7], the inhibition at 30 mg/kg was determined as 79.8%.

On to `NC(=O)N1C[C@@H]2C[C@H]1CN2CCOc1ccc(Oc2nc3ncccc3s2)cc1` [Example 15, (1S,4S)-5-{2-[4-([1,3]Thiazolo[4,5-b]pyridin-2-yloxy)phenoxy]ethyl}-2,5-diazabicyclo[2.2.1]heptane-2-carboxamide], for which, in the experiment with neutrophil influx, the inhibition in vivo at 30 mg/kg amounted to 47.7%. The figures for the IC50 in experiment [1] and in [3] were 310 nM and 29 ± 5.2 nM, respectively. Also, the inhibition at 30 mg/kg in experiment [7] worked out at 61.9%.

For the compound `CC(c1cc2ccccc2s1)N(O)C(N)=O` (stereo not drawn) [zileuton], the bronchial hyperresponsiveness result in [8] is recorded as “reduction of bronchial hyperresponsiveness”. The “effect in atopic dermatitis” value in the experiment on atopic dermatitis is “beneficial effects”. The pruritus entry with pruritus is listed as “relieving the pruritus”. Besides, the quality of life entry in [9] is “significantly improve quality of life”.

In the case of `CC(=O)N[C@@H]1C[C@H]2CC[C@@H](C1)N2CCc1ccc(Oc2nc3ncccc3s2)cc1` [Example 49, meso-N-[(3-exo)-8-{2-[4-([1,3]Thiazolo[4,5-b]pyridin-2-yloxy)phenyl]ethyl}-8-azabicyclo[3.2.1]oct-3-yl]acetamide], in the experiment on neutrophil influx, the inhibition in vivo at 30 mg/kg was 66%. Further, the IC50 came to 76 nM in experiment [1] and 0.7 nM in experiment [3]. In addition, the inhibition at 30 mg/kg in experiment [7] is 83%.

In the case of `CCN(CCO)CCc1ccc(Oc2nc3ncccc3s2)cc1` [Example 56, 2-(Ethyl{2-[4-([1,3]thiazolo[4,5-b]pyridin-2-yloxy)phenyl]ethyl}amino)ethanol], the inhibition in vivo at 30 mg/kg in the experiment with neutrophil influx turned out to be 81.6%. Besides, the half-inhibitory concentration (IC50) is 5 nM in experiment [1] and 1.9 nM in experiment [3]. Also, the inhibition at 30 mg/kg in experiment [7] came to 71.2%.
